Structures can show the parent of a compound that is named as a salt.
Target: T1, Serotonin-reuptake Sites (Rattus norvegicus, UniProt P31652)
T1 construct: The membranes are prepared from rat frontal cortex; from tissue; host or cells: rat frontal cortex membranes
Test: Determination of Affinity for Serotonin-reuptake Sites in the Rat ([^3 H]-paroxetine competition)
Format: binding
Settings: read-out: dissociation constant Ki
Protocol: Determination of Affinity for Serotonin-reuptake Sites in the Rat
The incubation buffer contains 50 mM TRIS-HCl (pH 7.4), 120 mM NaCl and 5 mM KCl. Non-specific binding is determined using 10 μM citalopram. At the end of the incubation, the mixture is filtered through filters and washed three times with 5 ml of cooled buffer. The radioactivity retained on the filters is determined by liquid scintillation counting. The binding isotherms are analysed by non-linear regression to determine the IC50 values. The latter are converted into a dissociation constant (Ki) using the Cheng-Prusoff equation: […]

T1 sequence (P31652 whole entry): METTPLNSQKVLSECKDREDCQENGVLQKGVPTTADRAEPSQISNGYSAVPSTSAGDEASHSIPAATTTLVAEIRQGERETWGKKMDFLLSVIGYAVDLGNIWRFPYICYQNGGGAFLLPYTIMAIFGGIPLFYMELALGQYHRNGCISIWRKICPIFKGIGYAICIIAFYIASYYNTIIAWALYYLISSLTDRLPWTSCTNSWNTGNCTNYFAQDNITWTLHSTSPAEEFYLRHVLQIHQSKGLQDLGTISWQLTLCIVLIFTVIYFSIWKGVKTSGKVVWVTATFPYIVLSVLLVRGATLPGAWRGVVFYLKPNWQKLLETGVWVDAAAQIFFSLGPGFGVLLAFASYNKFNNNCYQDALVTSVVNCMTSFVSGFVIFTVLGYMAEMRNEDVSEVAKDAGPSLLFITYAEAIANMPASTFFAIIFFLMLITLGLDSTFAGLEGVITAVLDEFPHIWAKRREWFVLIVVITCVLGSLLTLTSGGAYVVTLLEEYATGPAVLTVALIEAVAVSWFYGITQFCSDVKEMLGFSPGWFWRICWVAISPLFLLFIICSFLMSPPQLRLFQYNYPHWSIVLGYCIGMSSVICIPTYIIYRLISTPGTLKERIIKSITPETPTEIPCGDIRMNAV

COc1cncnc1N1CCN(CCCn2ccc3ccc(C#N)cc32)CC1 [Example 1, 1-{3-[4-(5-Methoxy-4-pyrimidinyl)-1-piperazinyl]propyl}-1H-indole-6-carbonitrile dihydrochloride]
Ki: 9.8 nM
